Laboratory results reported in ChEMBL document CHEMBL1154811, “Dehydroconicasterol and aurantoic acid, a chlorinated polyene derivative, from the Indonesian sponge Theonella swinhoei” (J Nat Prod, 2009).

How the values were obtained:
Assay type in all cases: functional, cell-based
[1] = tested on: C6; assay: Cytotoxicity against rat C6 cells
[2] = tested on: H9c2; assay: Cytotoxicity against rat H9c2 cells
[3] = tested on: HeLa; assay: Cytotoxicity against human HeLa cells

Measured: IC50

C/C(Cl)=C/C=C/C=C/C=C/C=C/C(=O)O [AURANTOIC ACID]
> 70 µM: all assays above

C/C(Cl)=C/C=C/C=C/C=C/C=C/C(O)=C1\C(=O)[C@H](CC(N)=O)N([C@@H]2OC[C@@H](O)[C@H](O)[C@H]2O)C1=O [AURANTOSIDE G]
> 70 µM: all assays above

C=C1C2CCC3=C4CC[C@H]([C@H](C)CC[C@@H](C)C(C)C)[C@@]4(C)CC[C@@H]3[C@@]2(C)CC[C@@H]1O (stereo not given in full) [CONICASTEROL]
> 70 µM: all assays above

C=C(CC[C@@H](C)[C@H]1CCC2=C3CCC4C(=C)[C@@H](O)CC[C@]4(C)[C@H]3CC[C@@]21C)C(C)C (stereo not given in full) [DEHYDROCONICASTEROL]
> 70 µM: all assays above

C=C1C2CCC3=C4CC[C@H]([C@H](C)CC[C@H](CC)C(C)C)[C@@]4(C)CC[C@@H]3[C@@]2(C)CC[C@@H]1O (stereo not given in full) [THEONELLASTEROL]
> 70 µM: all assays above
